Laboratory results taken from PMC7839693 (Chemistry (Weinheim an Der Bergstrasse, Germany), 2020).

How the values were obtained:
human integrin αvβ3 = human integrin αvβ3 (Homo sapiens, UniProt P05106+P06756, DEL719-788); experiment: Solid-phase receptor binding assay
E. coli β‐glucuronidase = E. coli β‐glucuronidase (Escherichia coli, UniProt P05804); experiment: β-glucuronidase cleavage assay / drug release; assay type: in vitro ADME
M21 human melanoma cells = experiment: In vitro cytotoxicity assay; assay type: cell-based; conditions: incubated alone (no β-glucuronidase)
[1] = Pilot experiment: stability of Cry-55gly under alkaline conditions; assay type: physicochemical; conditions: LiOH/H2O, 0 °C, 30 minutes, HPLC-MS
[2] = cited from earlier work
[3] = cited from earlier work; remark: listed apart in the source

SMILES | IC50 (human integrin αvβ3) | release of Cry-55gly after β-glucuronidase cleavage (E. coli β‐glucuronidase; E. coli β-glucuronidase 200 U mL-1, 37 °C, 60 min, HPLC and UPLC-MS) | stability in the absence of enzyme (control) (E. coli β‐glucuronidase; control experiments without β-glucuronidase, buffer, 37 °C, HPLC) | decreased activity relative to the free drug 3 (M21 human melanoma cells) | conversion into the epoxide (cryptophycin-52, 4) [1] | stability in mouse plasma [2] | stability in human plasma [3]
COc1ccc(C[C@H]2NC(=O)/C=C/C[C@@H]([C@H](C)[C@@H](OC(=O)CNC(=O)OCc3cc(NC(=O)CCCc4cn(CCC(=O)NCCCC[C@@H]5NC(=O)[C@@H](Cc6ccccc6)NC(=O)[C@H](CC(=O)O)NC(=O)CNC(=O)[C@H](CCCNC(=N)N)NC5=O)nn4)cc(O[C@@H]4O[C@H](C(=O)O)[C@@H](O)[C@H](O)[C@H]4O)c3)[C@@H](Cl)c3ccccc3)OC(=O)[C@H](CC(C)C)OC(=O)C(C)(C)CNC2=O)cc1Cl [compound 2, c(RGDfK)‐(m)‐GlcA‐linker‐Cry‐55gly] | 11.7 nM | not released over time | stable | 70 fold |  |  | 
COc1ccc(C[C@H]2NC(=O)/C=C/C[C@@H]([C@H](C)[C@@H](OC(=O)CN)[C@@H](Cl)c3ccccc3)OC(=O)[C@H](CC(C)C)OC(=O)C(C)(C)CNC2=O)cc1Cl [compound 3, cryptophycin‐55 glycinate] |  |  |  |  | 70% | excellent stability | excellent stability
